According to patent publication US11046668B2, “Small molecule antimicrobials” (Ohio State Innovation Foundation, priority 2016, dated 2021):
In brackets after ≈: the same amount, converted by molar mass. Entries after “also recorded” stand apart in the source; their conditions may differ. Marks after values point to notes of the source that are not given here.

Experiments:
[1] = system: pathogenic E.coli, Listeria strain, C. jejuni and E. coli bacteria; assay: Efficacy of JA-144 when incorporated in edible films (Example 1); format: cell-based
Source text: As described in primary HTS, we screened re-synthesized two compounds for C. jejuni 81-176 growth inhibition. Both re-synthesized compounds effective inhibiting Campylobacter growth at tested concentrations. […] Where positive control (P CNTL includes Campylobacter culture with known antibiotics and negative control (N CNTL) include Camylobacter culture alone. See FIG. 13. Testing the efficacy of JA-144 when incorporated in edible films against pathogenic E.coli, Listeria strain, C. jejuni and E. coli bacteria. The control (CNTL) include edible film alone. JA-144 was effective in reducing most of the pathogenic bacteria by 4 log. See FIG. 14. A cytotoxicity assay for potent semi-synthetic derivative compounds were performed using normal colon cells and sulfohodamine B methods. See FIG. 15. A cytotoxicity assay was performed for two re-synthesized compounds using normal colon cells and sulforhodamine B methods.

C. jejuni [2] = assay: Bacterial growth curves (optical density); conditions: OD every 4 hours
Description: (§1) For E. coli K12 and L. innocua, the bacterial incubations were followed by measurements of the Optical Density (OD) values every 15 minutes in an automated Sunrise™ Tecan Spectrophotometer (Tecan Co.) during an incubation period of 24 hours at 37° C. For C. jejuni, the incubation experimental design was similar, but the measurement period occurred every 4 hours. From the data collected, comparisons were made with the control samples and statistical analyses were used to determine the significance between the means for all observations.

L. innocua [3] = assay: Log reduction test in tapioca film
Description: (§2) The films prepared above were cut into small pieces that were capable of fitting into 1.5 ml micro-tubes. The weight of each film sample ranged from 5 to 15 mg. The micro-tubes were then exposed to UV light for 18 hours to eliminate possible contamination that may have occurred during the cutting and transferring process. […] After adding the proper amount of bacterial culture, the micro-tubes were placed in an incubator aerobically at 37° C. (for E. coli and L. innocua), or microaerobically at 42° C. (for C. jejuni and C. coli), for 24 hours, respectively.
(§3) After 24 hours incubation, the broth was centrifuged at 4,000 rpm for 5 min at 23° C. with appropriate aseptic precautions. The supernatant was discarded and the pellet resuspended using 1 ml of sterile peptone water and centrifuged again at 4000 rpm for 5 min. This step was repeated until the supernatant was clear. The pellets were then suspended in 1 ml sterile peptone water, and seven consecutive 10-fold dilutions were made to obtain inoculums ready for the plate counts. For the experimental groups with the small molecule compounds, 0.1 ml of diluted broth (dilution of 10^−2; 10^−4; 10^−6) were inoculated on to the plates. For the control groups, 0.1 ml of diluted broth (dilution of 10^−6 and 10^−7) was added to the plates. They were then incubated at 37° C. aerobically (for E. coli and L. innocua), or 42° C. microaerobically (for C. jejuni and C. coli) for 24 hours, and then colony numbers on each plate counted using a Darkfield Colony Counter manufactured by American Optical (Buffalo, N.Y.).

E. coli K12 [4] = assay: Log reduction test in tapioca film
Description: as §2, §3

L. innocua [5] = assay: MIC test in 96 well plate with TTC; format: cell-based, Listeria innocua; conditions: for antimicrobial activity: starting concentration 50 ppm
C. jejuni [6] = assay: Log reduction test in tapioca film; conditions: for % Efficacy loss due to incorporation / Log10 CFU/ml reduction: C. jejuni; for % Efficacy loss due to incorporation: film vs broth; for Log10 CFU/ml reduction / C. jejuni count after treatment: in tapioca film, JA-144 6.25 ppm, TH-4 25 ppm, TH-8 50 ppm, 24 hours; for Log10 CFU/ml reduction: vs control
Description: as §2, §3

[7] = system: Salmonella, E. coli, Listeria and also several commensal and/or probiotic bacteria; assay: Specificity against diverse foodborne pathogens and commensal/probiotic bacteria; format: cell-based; conditions: tested for specificity against foodborne pathogens and commensal/probiotic bacteria
C. jejuni [8] = assay: MIC test in 96 well plate with TTC; format: cell-based; conditions: Campylobacter jejuni, 42° C. microaerobically, 24 hours
L. innocua [9] = assay: Log reduction test in broth; conditions: 100 ppm JA-144
Description: as §3

E. coli K12 [10] = assay: MIC test in 96 well plate with TTC; format: cell-based; conditions: for antimicrobial activity: starting concentration 50 ppm
C. jejuni [11] = assay: Log reduction test in broth; conditions: JA-144 6.25 ppm, TH-4 25 ppm, TH-8 50 ppm, 24 hours; for Log10 CFU/ml reduction: C. jejuni in broth, vs control; for C. jejuni count after treatment: in broth
Description: as §3

E. coli K12 [12] = assay: Bacterial growth curves (optical density); conditions: OD over 24 hours at 37° C.
Description: as §1

C. coli [13] = assay: MIC test in 96 well plate with TTC; format: cell-based; conditions: Campylobacter coli, 42° C. microaerobically, 24 hours
[14] = system: colon cells (CCD-112CoN, ATCC); assay: Cytotoxicity assay on normal colon cells (sulforhodamine B); format: cell-based, human; conditions: for survival rates of colon cells: at 200 μM; for highest concentrations of each compound to cause lysis of human colon cells, converted to ppm: 200 μM converted to ppm; for toxicity against the colon cells: CCD-112CoN, ATCC, data not shown
C. coli [15] = assay: Log reduction test in broth; conditions: JA-144 3.125 ppm, TH-4 12.5 ppm, TH-8 50 ppm, 24 hours; for Log10 CFU/ml reduction: C. coli in broth, vs control; for C. coli count after treatment: in broth
Description: as §3

E. coli K12 [16] = assay: Log reduction test in broth; conditions: 100 ppm JA-144
Description: as §3

C. coli [17] = assay: Log reduction test in tapioca film; conditions: for % Efficacy loss due to incorporation / Log10 CFU/ml reduction: C. coli; for % Efficacy loss due to incorporation: film vs broth; for Log10 CFU/ml reduction / C. coli count after treatment: in tapioca film, JA-144 3.125 ppm, TH-4 12.5 ppm, TH-8 50 ppm, 24 hours; for Log10 CFU/ml reduction: vs control
Description: as §2, §3

L. innocua [18] = assay: Bacterial growth curves (optical density); conditions: OD over 24 hours at 37° C.
Description: as §1

Solubility in water = format: physicochemical
C. jejuni colonization = assay: In vivo effect on C. jejuni colonization in broiler chickens; conditions: administered orally, in 30% DMSO; three week old broiler chickens
[19] = in tapioca film, 1% w/w JA-144, 24 hours incubation

Compound | concentration that completely inhibited growth (growth curve) (C. jejuni [2]) [ppm] | % Efficacy loss due to incorporation (C. jejuni [6]) [%] | Log10 CFU/ml reduction (C. jejuni [6]) [Log10 CFU/ml] | C. jejuni count after treatment (C. jejuni [6]) | spectrum of antibacterial activity [7] | MIC (C. jejuni [8]) [µg/mL] | Log10 CFU/ml reduction (C. jejuni [11]) [Log10 CFU/ml] | C. jejuni count after treatment (C. jejuni [11]) | MIC (C. coli [13]) [µg/mL] | survival rates of colon cells [14] [%] | highest concentrations of each compound to cause lysis of human colon cells [14] [µM] | highest concentrations of each compound to cause lysis of human colon cells, converted to ppm [14] [ppm] | Log10 CFU/ml reduction (C. coli [15]) [Log10 CFU/ml] | C. coli count after treatment (C. coli [15]) | % Efficacy loss due to incorporation (C. coli [17]) [%] | Log10 CFU/ml reduction (C. coli [17]) [Log10 CFU/ml] | C. coli count after treatment (C. coli [17]) | antimicrobial activity (L. innocua [5]) | antimicrobial activity (E. coli K12 [10]) | toxicity against the colon cells [14] | also measured
OCC1(Cc2ccccc2)CCCN(Cc2cc3ccccc3[nH]2)C1 (stereo not shown) [JA-144] | 6.25 | 0.25 | 6.36 | 2.86 ± 0.13^a Log10 CFU/ml | broad spectrum effect on other bacteria including E. coli and Listeria | 3.12 to 6.25 (≈ 9.34 to 18.7 µM) | 6.35 | 2.90 ± 0.09^a Log10 CFU/ml | 3.12 to 6.25 (≈ 9.34 to 18.7 µM) | 99 | 200 | 66.9 | 6.27 | 2.93 ± 0.26^a Log10 CFU/ml | 2.03 | 6.14 | 2.93 ± 0.16^a Log10 CFU/ml |  |  |  | reduction of most of the pathogenic bacteria [1]: 4 log; Percent efficacy loss due to incorporation (L. innocua [3]; L. innocua, film vs broth): 36.42%; Log10 CFU/ml reduction (L. innocua [3]; L. innocua, tapioca film, 1% w/w JA-144, 24 hours, vs control): 3.51 Log10 CFU/ml; L. innocua count after treatment (L. innocua [3]; [19]): 5.22 ± 0.07^b Log10 CFU/ml; Percent efficacy loss due to incorporation (E. coli K12 [4]; E. coli K12, film vs broth): 43.48%; Log10 CFU/ml reduction (E. coli K12 [4]; E. coli K12, tapioca film, 1% w/w JA-144, 24 hours, vs control): 3.31 Log10 CFU/ml; E. coli K12 count after treatment (E. coli K12 [4]; [19]): 5.58 ± 0.08^a Log10 CFU/ml; MIC (L. innocua [5]; Listeria innocua, 37° C. aerobically, 24 hours): 50 to 100 µg/mL (≈ 149 to 299 µM); Log10 CFU/ml reduction (L. innocua [9]; L. innocua in broth, 24 hours, vs control): 5.52 Log10 CFU/ml; L. innocua count after treatment (L. innocua [9]; in broth, 24 hours incubation): 3.14 ± 0.11^b Log10 CFU/ml; MIC (E. coli K12 [10]; Escherichia coli, 37° C. aerobically, 24 hours): 100 µg/mL (≈ 299 µM); concentration that completely inhibited growth (growth curve) (E. coli K12 [12]): 100 ppm; Log10 CFU/ml reduction (E. coli K12 [16]; E. coli K12 in broth, 24 hours, vs control): 5.86 Log10 CFU/ml; E. coli K12 count after treatment (E. coli K12 [16]; in broth, 24 hours incubation): 2.96 ± 0.30^a Log10 CFU/ml; concentration that completely inhibited growth (growth curve) (L. innocua [18]): 100 ppm
O=S(=O)(NCc1ccc(F)cc1)c1ccc(Cl)s1 [TH-4] | 25 | 6.09 | 5.99 | 3.16 ± 0.14^a Log10 CFU/ml | specific to C. jejuni and C. coli | 12.5 to 25 (≈ 40.9 to 81.8 µM) | 6.37 | 2.78 ± 0.09^a Log10 CFU/ml | 12.5 to 25 (≈ 40.9 to 81.8 µM) | 60 | 200 | 61.1 | 6.16 | 3.21 ± 0.12^a Log10 CFU/ml | 29.02 | 4.37 | 5.03 ± 0.07^a Log10 CFU/ml | ineffective; also recorded: no antimicrobialactivity | ineffective; also recorded: no antimicrobialactivity | lacked toxicity | solubility in water (Solubility in water): not readiliy soluble in water; in vivo results in a chicken model (C. jejuni colonization): promising in vivo results
Cc1ccccc1CNS(=O)(=O)c1ccc(Cl)s1 [TH-8] | 50 | 25.52 | 4.01 | 5.10 ± 0.07^a Log10 CFU/ml | specific to C. jejuni and C. coli | 25 to 50 (≈ 82.8 to 166 µM) | 5.39 | 3.64 ± 0.05^a Log10 CFU/ml | 25 to 50 (≈ 82.8 to 166 µM) | 79 | 200 | 60.4 | 5.51 | 4.11 ± 0.05^a Log10 CFU/ml | 48.01 | 2.87 | 6.83 ± 0.06^a Log10 CFU/ml | ineffective; also recorded: did not show antimicrobialactivity | ineffective; also recorded: did not show antimicrobialactivity | lacked toxicity | solubility in water (Solubility in water): not readiliy soluble in water; in vivo results in a chicken model (C. jejuni colonization): promising in vivo results
